# Source: ChEMBL document CHEMBL1125153, “Structure-activity correlations for psychotomimetics. 1. Phenylalkylamines: electronic, volume, and hydrophobicity parameters” (1990)
# Assays:
# Format in all cases: functional
# Homo sapiens [1] = species: Homo sapiens; test: Log value of hallucinogenic activity was determined
# Homo sapiens [2] = species: Homo sapiens; test: Hallucinogenic activity i.e; ratio of effective dose of mescaline to the effective dose in human
# Rattus norvegicus = test: Effective dose in rats trained on 1 mg/kg DOM.
smiles,measurement,setting,value
COc1ccc(CCN)cc1,Log activity,Homo sapiens [1],-0.301
same,Activity,Homo sapiens [2],<1 MU
COc1cc(CC(C)N)c(OC)c(OC)c1 (stereo not drawn),Log activity,Homo sapiens [1],0.602
same,Activity,Homo sapiens [2],4 MU
same,ED50,Rattus norvegicus,16.5 mg/kg
COc1cc2c(cc1CC(C)N)OCO2 (stereo not drawn),Log activity,Homo sapiens [1],1
same,Activity,Homo sapiens [2],10 MU
CCCCSc1c(OC)cc(CCN)cc1OC,Log activity,Homo sapiens [1],0.477
same,Activity,Homo sapiens [2],3 MU
COc1cc(CCN)c(OC)cc1C,Log activity,Homo sapiens [1],1.301
same,Activity,Homo sapiens [2],20 MU
same,ED50,Rattus norvegicus,1.31 mg/kg
CCc1cc(OC)c(CCN)cc1OC,Log activity,Homo sapiens [1],1.255
same,Activity,Homo sapiens [2],18 MU
CCOc1cc(CCN)cc(OC)c1OCC,Log activity,Homo sapiens [1],0.176
same,Activity,Homo sapiens [2],1.5 MU
COc1cc(CC(C)N)c(OC)c(OC)c1OC (stereo not drawn),Log activity,Homo sapiens [1],0.778
same,Activity,Homo sapiens [2],6 MU
COc1ccc(OC)c(OC)c1CC(C)N (stereo not drawn),Log activity,Homo sapiens [1],1
same,Activity,Homo sapiens [2],10 MU
CCSc1cc(CCN)cc(OC)c1OC,Log activity,Homo sapiens [1],0.778
same,Activity,Homo sapiens [2],6 MU
COc1cc(CC(C)N)c(OC)c2c1OCO2 (stereo not drawn),Log activity,Homo sapiens [1],1.079
same,Activity,Homo sapiens [2],12 MU
COc1cc(CC(C)N)cc2c1OCO2 (stereo not drawn),Log activity,Homo sapiens [1],0.431
same,Activity,Homo sapiens [2],2.7 MU
same,ED50,Rattus norvegicus,3.66 mg/kg
CCOc1cc(CCN)cc(SC)c1OCC,Log activity,Homo sapiens [1],0.301
same,Activity,Homo sapiens [2],2 MU
CCOc1c(OC)cc(CCN)cc1SCC,Log activity,Homo sapiens [1],0.301
same,Activity,Homo sapiens [2],2 MU
CCOc1cc(CCN)cc(OC)c1SCC,Log activity,Homo sapiens [1],0.602
same,Activity,Homo sapiens [2],4 MU
CCOc1cc(CCN)cc(OC)c1OC,Log activity,Homo sapiens [1],0
same,Activity,Homo sapiens [2],1 MU
COc1c(CC(C)N)ccc2c1OCO2 (stereo not drawn),Log activity,Homo sapiens [1],1
same,Activity,Homo sapiens [2],10 MU
COc1cc(SC(C)C)c(OC)cc1CC(C)N (stereo not drawn),Log activity,Homo sapiens [1],1.602
same,Activity,Homo sapiens [2],40 MU
CCCSc1c(OC)cc(CCN)cc1OC,Log activity,Homo sapiens [1],1.204
same,Activity,Homo sapiens [2],16 MU
COc1ccc(CC(C)N)c2c1OCO2 (stereo not drawn),Log activity,Homo sapiens [1],0.477
same,Activity,Homo sapiens [2],3 MU
CCCCOc1c(OC)cc(CCN)cc1OC,Log activity,Homo sapiens [1],0.301
same,Activity,Homo sapiens [2],2 MU
CCOc1cc(CCN)cc(OCC)c1OC,Log activity,Homo sapiens [1],-0.301
same,Activity,Homo sapiens [2],<1 MU
CCCOc1cc(OC)c(CC(C)N)cc1OC (stereo not drawn),Log activity,Homo sapiens [1],1.301
same,Activity,Homo sapiens [2],20 MU
CCOc1cc(CCN)cc(OCC)c1SC,Log activity,Homo sapiens [1],-0.301
same,Activity,Homo sapiens [2],<1 MU
CCOc1cc(CCN)cc(SC)c1OC,Log activity,Homo sapiens [1],-0.301
same,Activity,Homo sapiens [2],<1 MU
CCOc1cc(CCN)cc(SCC)c1OCC,Log activity,Homo sapiens [1],-0.301
same,Activity,Homo sapiens [2],<1 MU
COc1cc(CC(C)N)cc(C)c1OCc1ccccc1 (stereo not drawn),Log activity,Homo sapiens [1],0.301
same,Activity,Homo sapiens [2],2 MU
COc1cc(CC(C)N)c(OC)cc1CC(C)C (stereo not drawn),Log activity,Homo sapiens [1],1.301
same,Activity,Homo sapiens [2],20 MU
CCCCCc1cc(OC)c(CC(C)N)cc1OC (stereo not drawn),Log activity,Homo sapiens [1],1
same,Activity,Homo sapiens [2],10 MU
COc1ccc2c(c1CC(C)N)OCO2 (stereo not drawn),Log activity,Homo sapiens [1],1
same,Activity,Homo sapiens [2],10 MU
CCCOc1cc(CCN)cc(OC)c1OC,Log activity,Homo sapiens [1],-0.301
same,Activity,Homo sapiens [2],<1 MU
COc1ccc(CCN)cc1OC,Log activity,Homo sapiens [1],-1
same,Activity,Homo sapiens [2],<0.2 MU
COc1cc(CCN)cc(SC)c1OC,Log activity,Homo sapiens [1],0.778
same,Activity,Homo sapiens [2],6 MU
COc1cc(CCN)cc(OC)c1SC,Log activity,Homo sapiens [1],1.079
same,Activity,Homo sapiens [2],12 MU
COc1ccc(CC(C)N)cc1OC (stereo not drawn),Log activity,Homo sapiens [1],-0.301
same,Activity,Homo sapiens [2],0.5 MU
COc1ccc(CCN)c(OC)c1OC,Log activity,Homo sapiens [1],-0.301
same,Activity,Homo sapiens [2],<1 MU
COc1ccc(CC(C)N)c(OC)c1 (stereo not drawn),Log activity,Homo sapiens [1],0.699
same,Activity,Homo sapiens [2],5 MU
same,ED50,Rattus norvegicus,4.88 mg/kg
COc1cc(CC(C)N)cc(OC)c1OC (stereo not drawn),Log activity,Homo sapiens [1],0.301
same,Activity,Homo sapiens [2],2 MU
same,ED50,Rattus norvegicus,6.34 mg/kg
COc1ccc(CC(C)N)c(OC)c1OC (stereo not drawn),Log activity,Homo sapiens [1],0.301
same,Activity,Homo sapiens [2],2 MU
same,ED50,Rattus norvegicus,7.8 mg/kg
CCOc1c(OC)cc(CCN)cc1OC,Log activity,Homo sapiens [1],0.845
same,Activity,Homo sapiens [2],7 MU
CCOc1c(OC)cc(CCN)cc1SC,Log activity,Homo sapiens [1],0.778
same,Activity,Homo sapiens [2],6 MU
CCSc1c(OC)cc(CCN)cc1OC,Log activity,Homo sapiens [1],1.301
same,Activity,Homo sapiens [2],20 MU
CCCOc1c(OC)cc(CCN)cc1OC,Log activity,Homo sapiens [1],0.778
same,Activity,Homo sapiens [2],6 MU
COc1cc(OC)c(CC(C)N)c(OC)c1 (stereo not drawn),Log activity,Homo sapiens [1],1
same,Activity,Homo sapiens [2],10 MU
same,ED50,Rattus norvegicus,3.69 mg/kg
CCOc1cc(CCN)cc(OCC)c1SCC,Log activity,Homo sapiens [1],-0.301
same,Activity,Homo sapiens [2],<1 MU
CCOc1cc(CCN)cc(SCC)c1OC,Log activity,Homo sapiens [1],-0.301
same,Activity,Homo sapiens [2],<1 MU
COc1cc(OC)c(OC)cc1CCN,Log activity,Homo sapiens [1],-0.301
same,Activity,Homo sapiens [2],<1 MU
CCOc1cc(CCN)cc(OCC)c1OCC,Log activity,Homo sapiens [1],-0.301
same,Activity,Homo sapiens [2],<1 MU
NCCc1ccc2c(c1)OCO2,Log activity,Homo sapiens [1],0
same,Activity,Homo sapiens [2],1 MU
CCOc1cc(CCN)cc(OC)c1SC,Log activity,Homo sapiens [1],0.602
same,Activity,Homo sapiens [2],4 MU
COc1c(CC(C)N)cc2c(c1OC)OCO2 (stereo not drawn),Log activity,Homo sapiens [1],0.699
same,Activity,Homo sapiens [2],5 MU
COc1cc(SC)c(OC)cc1CC(C)N (stereo not drawn),Log activity,Homo sapiens [1],1.602
same,Activity,Homo sapiens [2],40 MU
CCCCc1cc(OC)c(CC(C)N)cc1OC (stereo not drawn),Log activity,Homo sapiens [1],1.602
same,Activity,Homo sapiens [2],40 MU
same,ED50,Rattus norvegicus,0.91 mg/kg
CCc1cc(OC)c(CC(C)N)cc1OC (stereo not drawn),Log activity,Homo sapiens [1],2
same,Activity,Homo sapiens [2],100 MU
same,ED50,Rattus norvegicus,0.23 mg/kg
CCOc1cc(OC)c(CC(C)N)cc1OC (stereo not drawn),Log activity,Homo sapiens [1],1.301
same,Activity,Homo sapiens [2],20 MU
COc1cc(OC)c(OC)cc1CC(C)N (stereo not drawn),Log activity,Homo sapiens [1],1.301
same,Activity,Homo sapiens [2],20 MU
CCCc1cc(OC)c(CC(C)N)cc1OC (stereo not drawn),Log activity,Homo sapiens [1],1.903
same,Activity,Homo sapiens [2],80 MU
same,ED50,Rattus norvegicus,0.17 mg/kg
COc1ccc(OC)c(CC(C)N)c1 (stereo not drawn),Log activity,Homo sapiens [1],0.903
same,Activity,Homo sapiens [2],8 MU
same,ED50,Rattus norvegicus,5.51 mg/kg
COc1cc(CC(C)N)c(OC)cc1C (stereo not drawn) [DOM],Log activity,Homo sapiens [1],1.903
same,Activity,Homo sapiens [2],80 MU
same,ED50,Rattus norvegicus,0.44 mg/kg
COc1cc(CCN)cc(OC)c1OC [MESCALINE],Log activity,Homo sapiens [1],0
same,Activity,Homo sapiens [2],1 MU
same,ED50,Rattus norvegicus,14.6 mg/kg
COc1ccc(CC(C)N)cc1 (stereo not drawn) [PARA-METHOXYAMPHETAMINE],Log activity,Homo sapiens [1],0.699
same,Activity,Homo sapiens [2],5 MU
CC(N)Cc1ccc2c(c1)OCO2 (stereo not drawn) [TENAMFETAMINE],Log activity,Homo sapiens [1],0.477
same,Activity,Homo sapiens [2],3 MU
same,ED50,Rattus norvegicus,1.68 mg/kg
